{"source": "patent US7053178B2", "about": "“Synthetic peptides and kits for diagnosis of anti-phospholipid syndrome” (Yeda Research Development Co., LTD, priority 1998, dated 2006)", "key": {"anti-β2GPI G-3 mAb [1]": {"test_system": "anti-β2GPI G-3 mAb", "assay": "Cyto-ELISA: inhibition of G-3 mAb binding to HUVEC", "parameters": "species or system human", "conditions": "peptide concentration of 10 μM", "protocol": "FIGS. 2A–2C are graphs showing inhibition of the anti-β2GPI ILA-1, ILA-3 and G-3 mAbs binding to human umbilical vein endothelial cells (HUVEC) by competition assays using increasing concentrations of the inhibitory monomer peptides A, B and C, respectively, and of unrelated peptide D as control. The percent of inhibition was calculated as in FIG. 1 above. Each point represents mean±SD of three different experiments.\n(f) Anti-β2GPI mAb binding to endothelial cells in the presence of the inhibitory peptides. Human umbilical vein endothelial cells (HUVEC) were isolated as previously described and cultured under standard conditions (Jaffe et al., 1973). Briefly, umbilical cords were treated with collagenase (0.2% from Clostridium histolyticum, Boehringer) for 20 min at 37° C., cells were cultured in medium 199 with 20% FCS, 10 μg/ml growth supplement, 100 μg/ml heparin and antibiotics (streptomycin, penicillin), and used at passages 1–2 for plating onto gelatin-coated 96-well plates. Cyto-ELISA was performed as detailed before (Jaffe et al., 1973). Briefly, mAbs at different concentrations were added to HUVEC confluent wells, previously coated with 10 μg/ml β2GPI for 2 hours and fixed with 0.1% glutaraldehyde. The bound mAb was detected by further 1-hour incubation with alkaline phosphatase-conjugated goat anti-human IgM. […]"}, "anti-β2GPI G-3 mAb [2]": {"test_system": "anti-β2GPI G-3 mAb", "assay": "U937 monocyte adhesion to HUVEC exposed to G-3 mAb", "type": "cell-based, human", "conditions": "G-3 mAb preincubated with peptide, 15 μM peptide", "protocol": "(§1) FIGS. 3A–3C are graphs showing inhibition of U937 monocyte cell adhesion to HUVEC upon exposure to anti-β2GPI ILA-1, ILA-3 and G-3 mAbs and increasing concentrations of the inhibitory monomer peptides A, B and C, respectively, and of unrelated peptide D as control. The percentage of inhibition of adhesion was calculated as follows: % inhibition of adhesion=CPM in the presence of anti-β2GPI mAb−CPM in the presence of anti-β2GPI mAb and the tested peptide/CPM in the presence of anti-β2GPI mAb×100 (CPM=counts/min). Each point represents mean±SD of three different experiments.\n(§2) (g) Adherence of U937 monocyte cells to endothelial cells in the presence of anti-β2GPI mAbs and the inhibitory peptides. This assay was performed as previously described (Carvalho et al., 1996). Briefly, U937 cells (a monocyte/macrophage-like cell line) were pretreated with heat-aggregated gamma-globulin for 30 min at 37° C. […] Radioactivity associated with adherence was quantified by beta-scintillation spectroscopy. The results were expressed as percent of added U937 cells that adhered and are presented as the mean±SD from 3–5 replicate wells.\n(§3) The adhesion of monocytes to endothelial cells (EC) is considered a marker of EC activation. The percentage of adhesion is expressed as the portion of added U937 monocyte cells adhering to the HUVEC (thus reflecting the percentage of HUVEC coverage by the monocytes). […]"}, "[3]": {"test_system": "experimental APS induced by anti-β2GPI mAb ILA-3", "assay": "Murine experimental APS induced by ILA-3 mAb", "type": "in vivo, BALB/c mice", "conditions": "mice infused with ILA-3 mAb, peptide 40 μg/mouse daily 3 days, day 15", "protocol": "(i) Mice: Female BALB/c mice, aged 10–12 weeks, were purchased from Tel-Aviv University Animal House, Israel. The females were caged overnight with BALB/c males and examined for vaginal plug next morning. The presence of the plug was considered as day 0 of pregnancy in all the studied groups. (j) Induction of murine experimental APS. Mice were infused intravenously with 20 μg of each one of the anti-β2GPI ILA-1, ILA-3, and G-3 mAbs at day 0 (the day at which a vaginal plug was observed following mating) (Blank et al., 1991), 6 hours later the mice received daily 40 μg/mouse of the tested peptides during 3 days. The mice were bled and sacrificed on day 15 of pregnancy. Fetal resorptions, activated partial thromboplastin time and platelet counts (markers of the APS-equivalent in mice) were determined as described (Blank et al., 1991). Significant fetal loss, thrombocytopenia and prolonged activated thromboplastin time (aPTT) were induced in naive mice following passive intravenous administration of the three anti-β2GPI mAbs ILA-1, ILA-3 and G-3, as described in Materials and Methods, section (j). The clinical manifestations of the experimental APS were prevented by infusion of the specific peptide monomers A, B, C which were delivered to the mice with the corresponding pathogenic anti-β2GPI mAbs, as shown in Table 2. […] Similarly, mice which were preinfused with control IgM and received a cocktail of the peptide monomers (A+B+C), were not affected."}, "anti-β2GPI ILA-1 mAb": {"test_system": "anti-β2GPI ILA-1 mAb", "assay": "U937 monocyte adhesion to HUVEC exposed to ILA-1 mAb", "type": "cell-based, human", "conditions": "ILA-1 mAb preincubated with peptide, 10 μM peptide", "protocol": "as §1, §2, §3"}}, "note": "Where no end group is shown, it is not given here.", "data": [{"sequence": "CATLRVYKGG [Peptide C]", "values": [{"measurement": "inhibition of G-3 mAb binding to HUVEC", "setting": "anti-β2GPI G-3 mAb [1]", "result": 92, "unit": "%"}, {"measurement": "inhibition of adhesion of U937 to HUVEC", "setting": "anti-β2GPI G-3 mAb [2]", "result": 92, "unit": "%"}]}, {"sequence": "KDKATFGTHDG [Peptide B]", "values": [{"measurement": "% Fetal loss (Resorbed fetuses/Total fetuses)", "setting": "[3]", "result": "6 ± 2", "unit": "%"}, {"measurement": "Platelet count", "setting": "[3]", "result": 1137, "unit": "cells/mm^3 × 10^−3"}, {"measurement": "aPTT (activated partial thromboplastin time)", "setting": "[3]", "result": "27 ± 2", "unit": "s"}, {"measurement": "aPTT (activated partial thromboplastin time)", "setting": "[3]; listed as peptide B", "result": "27 ± 2", "unit": "s"}]}, {"sequence": "NTLKTPRVGG [Peptide A]", "values": [{"measurement": "inhibition of adhesion of U937 to HUVEC", "setting": "anti-β2GPI ILA-1 mAb", "result": 84, "unit": "%"}]}]}
